Measurements: US10517889B2, “Modulators of SMAD7 expression” (Ionis Pharmaceuticals, Inc., priority 2017, dated 2019)
pIC50: −log10 of the molar value. Strand notation (5' to 3'): a small letter for the sugar, then the base; units joined by * are phosphorothioate-linked, units joined directly phosphodiester-linked; [ ] holds rarer units or linkages, { } end groups; capitals alone tell only the bases. e = 2'-O-(2-methoxyethyl) (MOE); [5mC] = 5-methylcytosine; d = 2'-deoxy (DNA)

Tests used:
human SMAD7 mRNA [1] = assay: Antisense inhibition of human SMAD7 mRNA expression in Hep3B cells by 5-10-5 MOE gapmers, single concentration, electroporation, RT-PCR (Example 1, Study 1 and 2); type: cell-based; conditions: for % Inhibition: Study 2, electroporation with 15,000 nM antisense oligonucleotide
How it was run: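 Readout is percent SMAD7 mRNA inhibition versus untreated cells, measured by qRT-PCR (RTS5062) and corrected for total RNA by RIBOGREEN. Oligonucleotide, 5,000 nM or 15,000 nM, was delivered by electroporation into Hep3B cells at 20,000 per well. RNA was collected about 24 h later.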

human SMAD7 mRNA [2] = assay: Dose-dependent inhibition of human SMAD7 mRNA expression in Hep3B cells (Example 3, Study 1 and 2); type: cell-based; conditions: electroporation; for % inhibition of SMAD7 mRNA expression: approximately 16 hours; for pIC50: Study 1 (312.5-20000 nM)
How it was run: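 Hep3B cells, 20,000 per well, electroporated with antisense oligonucleotide at 0.31, 1.25, 5.00 or 20.00 μM (first series) or 0.74, 2.22, 6.67 or 20.00 μM (second series). After ~16 h, SMAD7 mRNA measured by RT-qPCR (RTS5062), normalised to RIBOGREEN total RNA. Percent inhibition vs untreated cells; IC50 derived.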

[3] = 5-10-5 MOE gapmers targeting SEQ ID NO: 1 and 2
[4] = 312.5 nM, Study 1, relative to untreated control cells
[5] = electroporation, 15,000 nM, approximately 24 hours, relative to untreated control cells, gapmers targeting SEQ ID NO: 1 and 2
[6] = electroporation, 15,000 nM antisense oligonucleotide (Study 2), 5-10-5 MOE gapmers targeting SEQ ID NO: 1 and 2

Row | Substance | % Inhibition (human SMAD7 mRNA [1]; [3]) | % inhibition of SMAD7 mRNA expression (human SMAD7 mRNA [1]; electroporation, 5,000 nM, approximately 24 hours, relative to untreated control cells, gapmers targeting SEQ ID NO: 1 and 2) | % inhibition of SMAD7 mRNA expression (human SMAD7 mRNA [2]; [4]) | % inhibition of SMAD7 mRNA expression (human SMAD7 mRNA [2]; 1250.0 nM, Study 1) | % inhibition of SMAD7 mRNA expression (human SMAD7 mRNA [2]; 5000.0 nM, Study 1) | % inhibition of SMAD7 mRNA expression (human SMAD7 mRNA [2]; 20000.0 nM, Study 1) | pIC50 (human SMAD7 mRNA [2]) | % inhibition of SMAD7 mRNA expression (human SMAD7 mRNA [1]; [5]) | % inhibition of SMAD7 mRNA expression (human SMAD7 mRNA [1]; [6])
1 | 771715 (antisense eA*eG*eT*e[5mC]*eT*d[5mC]*d[5mC]*dG*dA*dG*dT*dT*dA*dT*d[5mC]*e[5mC]*e[5mC]*e[5mC]*eA*eT) [compound 771715] | 67% | 68% | 7% | 18% | 42% | 49% | 4.77 | – | –
2 | 771717 (antisense eT*e[5mC]*e[5mC]*e[5mC]*eA*dT*d[5mC]*dT*dA*dT*d[5mC]*dG*dA*dA*dT*e[5mC]*eA*e[5mC]*e[5mC]*e[5mC]) [compound 771717] | – | – | 2% | 0% | 0% | 30% | < 4.70 | 57% | –
3 | 771732 (antisense eG*eT*e[5mC]*eA*eT*dG*dT*dG*dA*dA*d[5mC]*dA*d[5mC]*dT*d[5mC]*eT*eT*eT*e[5mC]*eA) [compound 771732] | 36% | – | 35% | 24% | 39% | 58% | 4.82 | – | –
4 | 771733 (antisense eT*eG*eA*e[5mC]*eA*dG*d[5mC]*d[5mC]*dA*d[5mC]*dA*dA*dG*dT*d[5mC]*eA*e[5mC]*eA*eA*e[5mC]) [compound 771733] | – | – | 0% | 0% | 26% | 61% | 4.80 | 75% | –
5 | 771734 (antisense e[5mC]*eT*e[5mC]*eA*eA*dA*d[5mC]*d[5mC]*dT*dT*dT*d[5mC]*dA*dG*dA*e[5mC]*e[5mC]*eA*eT*e[5mC]) [compound 771734] | 64% | – | 0% | 0% | 30% | 53% | < 4.70 | – | –
6 | 771737 (antisense eT*e[5mC]*eA*eA*eA*dT*dG*dA*dA*d[5mC]*d[5mC]*d[5mC]*dT*dG*dG*eT*eT*eA*eT*eA) [compound 771737] | – | – | 0% | 2% | 0% | 16% | – | – | 57%
7 | 771742 (antisense eA*eG*eA*e[5mC]*eA*dG*dA*dT*d[5mC]*dT*d[5mC]*dT*dG*dA*dA*eG*eT*e[5mC]*eA*eG) [compound 771742] | 44% | – | 0% | 0% | 0% | 23% | < 4.70 | – | –
8 | 771762 (antisense eG*eT*e[5mC]*eA*e[5mC]*d[5mC]*dA*d[5mC]*d[5mC]*dG*dA*dT*dG*d[5mC]*dA*eT*e[5mC]*e[5mC]*eA*eA) [compound 771762] | – | – | 0% | 0% | 38% | 67% | – | – | 72%
9 | 771769 (antisense eG*eG*e[5mC]*eT*eG*dG*dG*dA*dA*dT*d[5mC]*dA*dG*dA*dA*e[5mC]*eT*eT*eG*eG) [compound 771769] | – | – | 10% | 0% | 3% | 53% | < 4.70 | – | 71%
10 | 771770 (antisense e[5mC]*eT*eG*eT*eT*dG*dG*d[5mC]*dA*dG*dT*dG*d[5mC]*dT*d[5mC]*e[5mC]*e[5mC]*eA*e[5mC]*e[5mC]) [compound 771770] | – | – | 0% | 11% | 27% | 51% | < 4.70 | – | 61%
11 | 771773 (antisense eT*e[5mC]*eT*eT*eT*dT*d[5mC]*dG*d[5mC]*dA*dT*d[5mC]*d[5mC]*dT*d[5mC]*eA*eG*eG*eA*eA) [compound 771773] | – | – | 0% | 0% | 0% | 42% | < 4.70 | 57% | –
